Measurements: US11339157B1, “4H-pyrrolo[3,2-c]pyridin-4-one derivatives” (Bayer Aktiengesellschaft, priority 2017, dated 2022)
Values joined by “and” are separate entries in the source; they are usually repeats but may differ in a detail not shown here. Identical values can stand only once.

Key:
[1] = test system: Ba/F3-EGFR-WT cells; assay: Proliferation assay in BA/F3 (wild type) cells (Cell Titer-Glo); format: cell-based; conditions: Table 10, plated with 10 ng/mL EGF
Method: (§1) Cellular Data Description (WT, insSVD, Ins ASV)
(§2) Plates were incubated at 37° C. for 48 h. Retrovirus was harvested by filtering the media supernatant through a 0.45 μm filter.
(§3) Ba/F3 cells purchased from DSMZ were grown in RPMI+10% FBS+10 ng/mL IL-3 and infected with filtered retroviral supernatant at a 1:2 dilution. Polybrene was added to a concentration of 8 μg/mL, plates were spun for 90 min, and incubated overnight at 37° C. 2 μg/mL puromycin was added to the infected cells 24 h after infection and cells were continually grown in the presence of puromycin and 10 ng/mL IL-3. Following stably expressing Ba/F3 cell lines were generated: Ba/F3-EGFR-WT, Ba/F3-EGFR-insSVD.
(§4) The cells ectopically expressing WT EGFR were plated with 10 ng/mL Millipore Culture grade EGF. The cells ectopically expressing EGFR-insSVD were plated without EGF.
(§5) 100 nL of compound was added to each well using a 100 nL pin head, and plates were incubated at 37° C. for 48 h.
(§6) Cell viability was measured by adding 30 μL of Cell Titer-Glo Luminescent Cell Viability Reagent. Plates were sealed with Perkin Elmer Top-Seal, inverted several times to mix, and immediately centrifuged at 1000 rpm for 2 min. Plates were incubated in low light conditions for 8-10 min and luminescence was measured.

[2] = test system: Ba/F3-EGFR-insSVD cells; assay: Proliferation assay in BA/F3 (ins SVD) cells (Cell Titer-Glo); format: cell-based
Method: as §1, §2, §3, §4, §5, §6

[3] = molecular target: EGFR ins SVD (insertion of SVD between D770 and N771) (Homo sapiens, UniProt P00533, INS767SVD); assay: Exon 20-Mutant-EGFR(D770_N771insSVD) kinase assay (TR-FRET); format: biochemical; conditions: Table 9; read-out: mutEGFR (D770_N771insSVD) kinase assay IC50
Sequence of EGFR ins SVD (insertion of SVD between D770 and N771) (P00533 with tags, fused parts or gaps INS767SVD limits assumed): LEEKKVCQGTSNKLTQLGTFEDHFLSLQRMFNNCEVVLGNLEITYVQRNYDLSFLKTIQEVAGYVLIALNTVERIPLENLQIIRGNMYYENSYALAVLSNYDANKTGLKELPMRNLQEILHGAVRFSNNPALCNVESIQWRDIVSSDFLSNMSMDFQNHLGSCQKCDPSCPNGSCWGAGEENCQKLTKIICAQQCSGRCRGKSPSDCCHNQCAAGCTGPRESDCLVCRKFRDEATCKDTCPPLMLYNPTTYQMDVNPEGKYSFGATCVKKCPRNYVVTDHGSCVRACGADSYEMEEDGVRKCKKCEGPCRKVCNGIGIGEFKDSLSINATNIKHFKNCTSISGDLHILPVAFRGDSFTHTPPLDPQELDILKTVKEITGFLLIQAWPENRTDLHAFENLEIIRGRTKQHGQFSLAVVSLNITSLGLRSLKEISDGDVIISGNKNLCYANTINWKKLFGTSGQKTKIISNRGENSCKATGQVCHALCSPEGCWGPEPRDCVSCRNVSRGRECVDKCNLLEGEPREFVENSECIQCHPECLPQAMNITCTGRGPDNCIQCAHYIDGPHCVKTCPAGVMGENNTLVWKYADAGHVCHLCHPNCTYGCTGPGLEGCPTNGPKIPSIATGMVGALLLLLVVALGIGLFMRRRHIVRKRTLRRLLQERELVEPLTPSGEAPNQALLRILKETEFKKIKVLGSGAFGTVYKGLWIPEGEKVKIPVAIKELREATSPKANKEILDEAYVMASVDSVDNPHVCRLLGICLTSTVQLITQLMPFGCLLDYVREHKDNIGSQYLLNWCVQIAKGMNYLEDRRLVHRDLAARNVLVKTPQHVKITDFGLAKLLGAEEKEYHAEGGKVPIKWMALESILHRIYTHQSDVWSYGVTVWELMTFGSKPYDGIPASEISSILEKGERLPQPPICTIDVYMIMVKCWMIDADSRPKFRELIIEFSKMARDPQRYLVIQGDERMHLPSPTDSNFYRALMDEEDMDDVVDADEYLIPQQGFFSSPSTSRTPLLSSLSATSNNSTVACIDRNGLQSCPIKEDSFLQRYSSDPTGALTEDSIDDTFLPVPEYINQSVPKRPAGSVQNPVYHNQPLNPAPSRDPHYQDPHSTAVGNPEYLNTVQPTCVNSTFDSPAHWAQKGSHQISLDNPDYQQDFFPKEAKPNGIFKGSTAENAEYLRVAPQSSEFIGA
Method: Exon 20-Mutant-EGFR(D770_N771insSVD) Kinase Assay
Inhibitory activity of compounds of the present invention against an Epidermal Growth Factor Receptor (EGFR) with an insertion of the amino acids sequence SVD between D770 and N771 was quantified employing the TR-FRET based kinase activity assay as described in the following paragraphs.
For the assay 50 nl of a 100-fold concentrated solution of the test compound in DMSO was pipetted into either a black low volume 384 well microtiter plate or a black 1536 well microtiter plate (both Greiner Bio-One, Frickenhausen, Germany), 2 μl of a solution of EGFR in aqueous assay buffer [50 mM Hepes pH 7.0, 10 mM MgCl2, 1 mM dithiothreitol, 0.5 mM EGTA, 0.3 mM activated sodium ortho-vanadate, 0.005% (w/v) bovine serum albumin, 0.005% (v/v) Tween-20] were added and the mixture was incubated for 15 min at 22° C. to allow pre binding of the test compounds to the enzyme before the start of the kinase reaction. […] The concentration of EGFR was adjusted depending of the activity of the enzyme lot and was chosen appropriate to have the assay in the linear range, typical concentration was 15 pg/μl. The reaction was stopped by the addition of 3 μl of a solution of HTRF detection reagents (83.3 nM streptavidine-XL665 [Cisbio Bioassays, Codolet, France] and 1.67 nM PT66-Tb-Cryptate, a terbium-cryptate labelled anti-phospho-tyrosine antibody from Cisbio Bioassays [instead of the PT66 Tb cryptate PT66 Eu Chelate from Perkin Elmer can also be used]) in an aqueous EDTA-solution (133.3 mM EDTA, 0.2% (w/v) bovine serum albumin in 50 mM HEPES pH 7.5).
The resulting mixture was incubated 1 h at 22° C. to allow the binding of the biotinylated phosphorylated peptide to the streptavidine-XL665 and the PT66-Tb-Cryptate. Subsequently the amount of phosphorylated substrate was evaluated by measurement of the resonance energy transfer from the PT66-Tb-Cryptate to the streptavidine-XL665.

[4] = Table 10, plated without EGF, 48 h
[5] = Mus musculus, BaF3, 48 h, Table 10, plated without EGF
[6] = Mus musculus, BaF3, Table 10, plated without EGF, 48 h

SMILES | IC50 ([1]; Mus musculus, BaF3, 48 h) [nM] | IC50 [2, 4] | IC50 [3] | IC50 ([1]; 48 h) [nM] | IC50 [2, 5] [nM] | IC50 [2, 6] [nM]
COc1c(F)cccc1Nc1c(-c2ccncc2OCC2CCCO2)[nH]c2c1C(=O)NCC2 (single isomer, unassigned; enantiomer 1) [Example 88, 3-(3-fluoro-2-methoxyanilino)-2-{3-[(oxolan-2-yl)methoxy]pyridin-4-yl}-1,5,6,7-tetrahydro-4H-pyrrolo[3,2-c]pyridin-4-one (enantiomer 1)] | 388 | 38 nM | 0.0888 nM | – | – | –
COc1c(F)cccc1Nc1c(-c2ccncc2OCC2CCCO2)[nH]c2c1C(=O)NCC2 (single isomer, unassigned; enantiomer 2) [Example 89, 3-(3-fluoro-2-methoxyanilino)-2-{3-[(oxolan-2-yl)methoxy]pyridin-4-yl}-1,5,6,7-tetrahydro-4H-pyrrolo[3,2-c]pyridin-4-one (enantiomer 2)] | – | 12.8 nM | 0.108 nM | 252 | – | –
COC(C)(C)COc1cnccc1-c1[nH]c2c(c1Nc1cccc(F)c1C)C(=O)NCC2 [Example 21, 3-[(3-fluoro-2-methylphenyl)amino]-2-[3-(2-methoxy-2-methylpropoxy)pyridin-4-yl]-1,5,6,7-tetrahydro-4H-pyrrolo[3,2-c]pyridin-4-one] | 251 | 7.48 nM and < 4.78 nM and 6.8 nM and 7.49 nM | – | – | 8.81 | –
COCCOc1cnccc1-c1[nH]c2c(c1Nc1cccc(Cl)c1OC)C(=O)NCC2 [Example 32, 3-(3-chloro-2-methoxyanilino)-2-[3-(2-methoxyethoxy)pyridin-4-yl]-1,5,6,7-tetrahydro-4H-pyrrolo[3,2-c]pyridin-4-one] | 299 | – | 0.076 nM and < 0.0725 nM | – | 9.87 | –
COc1c(Cl)cccc1Nc1c(-c2ccncc2OCC(C)(C)OC)[nH]c2c1C(=O)NCC2 [Example 33, 3-(3-chloro-2-methoxyanilino)-2-[3-(2-methoxy-2-methylpropoxy)pyridin-4-yl]-1,5,6,7-tetrahydro-4H-pyrrolo[3,2-c]pyridin-4-one] | 476 | – | 0.225 nM and 0.334 nM and 0.166 nM and 0.161 nM and 0.275 nM and < 0.0725 nM | – | 9.32 | –
COC(C)(C)COc1cnccc1-c1[nH]c2c(c1Nc1cccc(Cl)c1Cl)C(=O)NCC2 [Example 34, 3-(2,3-dichloroanilino)-2-[3-(2-methoxy-2-methylpropoxy)pyridin-4-yl]-1,5,6,7-tetrahydro-4H-pyrrolo[3,2-c]pyridin-4-one] | 278 | – | 0.0946 nM | – | 7 | –
CCc1c(F)cccc1Nc1c(-c2ccncc2OCC(C)(C)OC)[nH]c2c1C(=O)NCC2 [Example 35, 3-(2-ethyl-3-fluoroanilino)-2-[3-(2-methoxy-2-methylpropoxy)pyridin-4-yl]-1,5,6,7-tetrahydro-4H-pyrrolo[3,2-c]pyridin-4-one] | 428 | – | 0.185 nM | – | 7.98 | –
COC(C)(C)COc1cnccc1-c1[nH]c2c(c1Nc1cccc(Cl)c1C)C(=O)NCC2 [Example 36, 3-(3-chloro-2-methylanilino)-2-[3-(2-methoxy-2-methylpropoxy)pyridin-4-yl]-1,5,6,7-tetrahydro-4H-pyrrolo[3,2-c]pyridin-4-one] | 529 | – | 0.194 nM | – | 9.55 | –
COC(C)(C)COc1cnccc1-c1[nH]c2c(c1Nc1cccc(F)c1Br)C(=O)NCC2 [Example 37, 3-(2-bromo-3-fluoroanilino)-2-[3-(2-methoxy-2-methylpropoxy)pyridin-4-yl]-1,5,6,7-tetrahydro-4H-pyrrolo[3,2-c]pyridin-4-one] | 583 | – | 0.12 nM and 0.0795 nM and 0.107 nM and 0.0958 nM and < 0.0725 nM (2×) | – | 16 | –
COC(C)(C)COc1cnccc1-c1[nH]c2c(c1Nc1cccc(Cl)c1OC(F)F)C(=O)NCC2 [Example 38, 3-[3-chloro-2-(difluoromethoxy)anilino]-2-[3-(2-methoxy-2-methylpropoxy)pyridin-4-yl]-1,5,6,7-tetrahydro-4H-pyrrolo[3,2-c]pyridin-4-one] | 466 | – | 0.13 nM | – | 17.5 | –
COC(C)(C)COc1cnccc1-c1[nH]c2c(c1Nc1ccccc1Cl)C(=O)NCC2 [Example 39, 3-(2-chloroanilino)-2-[3-(2-methoxy-2-methylpropoxy)pyridin-4-yl]-1,5,6,7-tetrahydro-4H-pyrrolo[3,2-c]pyridin-4-one] | 661 | – | 0.104 nM | – | 27.5 | –
COC(C)(C)COc1cnccc1-c1[nH]c2c(c1Nc1cc(F)cc(F)c1C)C(=O)NCC2 [Example 40, 3-(3,5-difluoro-2-methylanilino)-2-[3-(2-methoxy-2-methylpropoxy)pyridin-4-yl]-1,5,6,7-tetrahydro-4H-pyrrolo[3,2-c]pyridin-4-one] | 1450 | – | 0.0994 nM | – | 50.5 | –
COC(C)(C)COc1cnccc1-c1[nH]c2c(c1Nc1cccc(F)c1C(F)(F)F)C(=O)NCC2 [Example 41, 3-[3-fluoro-2-(trifluoromethyl)anilino]-2-[3-(2-methoxy-2-methylpropoxy)pyridin-4-yl]-1,5,6,7-tetrahydro-4H-pyrrolo[3,2-c]pyridin-4-one] | 795 | – | 0.124 nM | – | 52.5 | –
COC(C)(C)COc1cnccc1-c1[nH]c2c(c1Nc1ccccc1C(F)(F)F)C(=O)NCC2 [Example 42, 2-[3-(2-methoxy-2-methylpropoxy)pyridin-4-yl]-3-[2-(trifluoromethyl)anilino]-1,5,6,7-tetrahydro-4H-pyrrolo[3,2-c]pyridin-4-one] | 625 | – | 0.19 nM | – | 72.9 | –
COC(C)(C)COc1cnccc1-c1[nH]c2c(c1Nc1cc(F)cc(F)c1OC(F)F)C(=O)NCC2 [Example 43, 3-[2-(difluoromethoxy)-3,5-difluoroanilino]-2-[3-(2-methoxy-2-methylpropoxy)pyridin-4-yl]-1,5,6,7-tetrahydro-4H-pyrrolo[3,2-c]pyridin-4-one] | 1880 | – | 0.1 nM | – | 117 | –
COc1c(Nc2c(-c3ccncc3OCC(C)(C)OC)[nH]c3c2C(=O)NCC3)ccc(F)c1Cl [Example 44, 3-(3-chloro-4-fluoro-2-methoxyanilino)-2-[3-(2-methoxy-2-methylpropoxy)pyridin-4-yl]-1,5,6,7-tetrahydro-4H-pyrrolo[3,2-c]pyridin-4-one] | 2450 | – | 0.0922 nM and < 0.0725 nM | – | 173 | –
COC(C)(C)COc1cnccc1-c1[nH]c2c(c1Nc1cc(F)ccc1C)C(=O)NCC2 [Example 45, 3-(5-fluoro-2-methylanilino)-2-[3-(2-methoxy-2-methylpropoxy)pyridin-4-yl]-1,5,6,7-tetrahydro-4H-pyrrolo[3,2-c]pyridin-4-one] | 2490 | – | 0.319 nM | – | 255 | –
COc1c(Cl)cccc1Nc1c(-c2ccncc2OC[C@@H]2CCCO2)[nH]c2c1C(=O)NCC2 [Example 66, 3-(3-chloro-2-methoxyanilino)-2-(3-{[(2S)-oxolan-2-yl]methoxy}pyridin-4-yl)-1,5,6,7-tetrahydro-4H-pyrrolo[3,2-c]pyridin-4-one] | – | – | 0.0932 nM | – | – | 4.6
COc1c(Cl)cccc1Nc1c(-c2ccncc2OC[C@H]2CCCO2)[nH]c2c1C(=O)NCC2 [Example 67, 3-(3-chloro-2-methoxyanilino)-2-(3-{[(2R)-oxolan-2-yl]methoxy}pyridin-4-1)-1,5,6,7-tetrahydro-4H-pyrrolo[3,2-c]pyridin-4-one] | – | – | 0.0908 nM | – | – | 9.33
